# Laboratory results taken from patent US10888561B2, “CGRP receptor antagonists” (Heptares Therapeutics Limited, priority 2015, dated 2021).
# Tests used:
# [1] = Thermodynamic solubility profiling; assay type: physicochemical; conditions: PBS buffer pH 7.4, 24 h at rt
# Method: Thermodynamic solubility profiling. A 50 mM DMSO stock solution of test compound was prepared, and from this, a working solution of 1 mM was prepared by dilution with DMSO. The UV absorbance of working solution was scanned from 220 nm to 1000 nm to identify the wavelength maxima of test compound. The 1 mM working solution was then serially diluted in DMSO to different concentrations to determine linearity/calibration curve. […] The resulting solution was then kept on a RotoSpin shaker at 50 rpm for 24 h at rt before the solution was filtered using 0.45 micron PVDF injector filters in order to remove the insoluble fraction of the compound. Subsequently, 150 uL of the filtrate is taken for quantification using a UV spectrophotometer, acquiring the optical density of standard solutions and test compound at the same wavelength maxima. From the optical density of test compound the thermodynamic solubility is calculated using the linearity/calibration curve and expressed as micromolar (μM). Solubility profiles of certain compounds of the invention are detailed in Table 7.
# CGRP receptor = CGRP receptor (Homo sapiens (Human), UniProt O60894+Q16602); conditions: literature; cited from earlier work
# CGRP receptor, sequence (Q16602 23-461): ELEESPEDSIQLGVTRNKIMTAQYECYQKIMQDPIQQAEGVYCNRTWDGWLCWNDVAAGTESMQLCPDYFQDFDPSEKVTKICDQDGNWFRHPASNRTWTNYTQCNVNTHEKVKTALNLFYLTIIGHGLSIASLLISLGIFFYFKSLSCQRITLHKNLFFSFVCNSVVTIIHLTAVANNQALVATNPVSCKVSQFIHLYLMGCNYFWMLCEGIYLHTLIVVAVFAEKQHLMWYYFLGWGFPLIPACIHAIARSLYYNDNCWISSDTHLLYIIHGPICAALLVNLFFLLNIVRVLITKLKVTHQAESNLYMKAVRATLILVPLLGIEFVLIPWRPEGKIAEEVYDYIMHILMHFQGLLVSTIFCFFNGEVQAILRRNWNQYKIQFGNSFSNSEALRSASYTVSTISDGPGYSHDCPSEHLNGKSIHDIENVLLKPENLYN
# CGRP receptor, sequence (O60894 27-148): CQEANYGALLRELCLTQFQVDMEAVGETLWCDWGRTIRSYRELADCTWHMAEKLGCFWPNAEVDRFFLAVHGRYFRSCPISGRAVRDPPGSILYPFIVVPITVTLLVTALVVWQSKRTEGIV
# migraine = conditions: humans, at 24 h after intravenous infusion of a 2.5 mg dose; cited from earlier work
Compound,Thermodynamic solubility (μM) pH 7.4 [1],kinetics at the CGRP receptor (CGRP receptor),headache-free rate (migraine)
"Cc1cc(C[C@@H](NC(=O)N2CCC(N3Cc4ccccc4NC3=O)CC2)C(=O)N[C@@H](CC2CCNCC2)C(=O)N2CCN(c3ccncc3)CC2)cc2cn[nH]c12 [Example 10, N-[(2R)-3-(7-methyl-1H-indazol-5-yl)-1-oxo-1-({(2S) (2S)-1-oxo-3-(piperidin-4-yl)-1-[4-(pyridin-4-yl)piperazin-1-yl]propan-2-yl}amino)propan-2-yl]-4-(2-oxo-1,4-dihydroquinazolin-3(2H)-yl)piperidine-1-carboxamide]",1205 μM,–,–
O=C(CN1C(=O)C2(CCCC2)NC[C@H]1c1cc(F)cc(F)c1)Nc1ccc2c(c1)C[C@@]1(C2)C(=O)Nc2ncccc21 [MK-3207],–,relatively slow dissociation,–
NCCCC[C@H](NC(=O)[C@@H](Cc1cc(Br)c(O)c(Br)c1)NC(=O)N1CCC(N2Cc3ccccc3NC2=O)CC1)C(=O)N1CCN(c2ccncc2)CC1 [olcegepant],–,slow kinetics,47%
